Results reported in PubChem BioAssay AID1963839 (Molecular Pharmacology Branch, DTP, NCI, 2024).

Tested on: 817829-284-R-J1-PDC complex spheroid viability
Assay: Anticancer human tumor 817829-284-R-J1-PDC patient-derived colon adenocarcinoma cell line growth inhibition [POLQ]
Details: for IC50: curve of first compound; for viability, T/C: stronger effect = lower value
Protocol: Multicellular complex tumor spheroid response to Polymerase (POL) inhibitors (novobiocin, ART-558, RP6685) in combination with a variety of drugs and investigational agents in selected tumor cell lines
The POL inhibitors (novobiocin, ART-558, and RP6685) were evaluated both individually and in combination with standard of care and investigational anticancer small molecules within a complex spheroid model of solid tumors. . Complex spheroids include a stromal component modeled by human endothelial cells (HUVEC) and fibroblasts modeled by human mesenchymal stem cells (MSCs). The concentration ranges selected for each drug and investigational agent were based upon clinically achievable concentrations if the clinical Cmax of the agent was known.
Compounds. The drugs and investigational agents: novobiocin (NSC847541), ART-558 (NSC835418), RP-6685 (NSC848927), peposertib (NSC802822), ceralasertib (NSC780249), elimusertib (NSC800525), camonsertib (NSC841442), AZD-1390 (NSC803789), olaparib (NSC753686), talazoparib (NSC767125), rucaparib (NSC756644), sotorasib (NSC818433), MRTX-1133 (NSC836407), SN-38 (NSC673596), topotecan (NSC609699), epotoside (NSC141540), doxorubicin (NSC123127), gemcitabine (NSC613327), 5-fluorouracil (NSC19893), paclitaxel (NSC125973), vemurafenib (NSC761431), MSA-2 (NSC828583), SN-011 (NSC837082), adavosertib (NSC754352), prexasertib (NSC758257), carboplatin (NSC241240) and oxaliplatin (NSC266046), were obtained from the National Cancer Institute (NCI) Developmental Therapeutics Program Chemical Repository (21). The FDA-approved anticancer drug set is available from the Developmental Therapeutics Program at https://dtp.cancer.gov/organization/dscb/obtaining/. […] The stock solutions were prepared in dimethyl sulfoxide (DMSO, Sigma-Aldrich, St. Louis, MO, cat. D2650), except for the platinum compounds which were prepared in saline (Quality Biological, Gaithersburg, MD, cat. 114-055-101), at 800-fold the tested concentration and stored at -70 degrees C prior to their use. All drugs and investigational agents were tested over a range starting from a high concentration at or near the clinical Cmax and decreasing in half-log increments. If the clinical Cmax for an agent had not been determined, the highest concentration tested was 10 microM, except for SN-38, which was tested at a high concentration of 1 microM.
Cell Culture. All cells were maintained in an incubator at 37 degrees C and 5% CO2 with 95% humidity. The PDC lines were cultured according to standard operating procedures established by the NCI PDMR (https://pdmr.cancer.gov). Table 3 of the manuscript, lists the cell lines along with the number of the three cell types plated to form the mct-spheroids and media for tumor cell growth. After thawing, all PDC lines, except 997537-175-T-J1-PDC and 415267-285-R-J2-PDC, were cultured in Matrigel-coated flasks prepared with a working solution of 1X Ham's F-12 nutrient mix, without supplementation (Thermo Fisher Scientific, cat. 11765054), 100 U/mL penicillin-streptomycin (Thermo Fisher Scientific, cat. 15140122), and 2.5% Matrigel (Corning Inc., Corning, NY, cat. 354248) for the first three passages. The two PDC lines 997537-175-T-J1-PDC and 415267-285-R-J2-PDC were cultured on uncoated flasks. The 857933-349-R-J2-PDC line was cultured in 6C/Colon 1B media containing advanced DMEM/F-12 (Thermo Fisher Scientific, cat. 12634028), 10 mM HEPES (Thermo Fisher Scientific, cat. 15630080), 1X GlutaMAX supplement (Thermo Fisher Scientific, cat. 35050061), 0.1 mg/mL primocin (InvivoGen, San Diego, CA, cat. ant-pm-2), 10% defined fetal bovine serum, heat inactivated (HyClone Laboratories Inc., Logan, UT, cat. SH30070.03HI), 50% L-WRN conditioned media (ATCC, cat. CRL-3276), 1.25 mM N-Acetyl-L-cysteine (Sigma-Aldrich, cat. A9165), 10 mM nicotinamide (Sigma-Aldrich, cat. N0636), 1X B-27 supplement (Thermo Fisher Scientific, cat. 17504044), 1X N-2 supplement (Thermo Fisher Scientific, cat. […]

[1] = second compound 0.0316 µM, first compound 0.0316 µM
[2] = second compound 0.0316 µM, first compound 0.1 µM
[3] = second compound 0.1 µM, first compound 0.0316 µM
[4] = second compound 0.1 µM, first compound 0.1 µM
[5] = second compound 0.316 µM, first compound 0.0316 µM
[6] = second compound 0.316 µM, first compound 0.1 µM
[7] = second compound 1 µM, first compound 0.0316 µM
[8] = second compound 1 µM, first compound 0.1 µM
[9] = second compound 3.16 µM, first compound 0.0316 µM
[10] = second compound 3.16 µM, first compound 0.1 µM
[11] = second compound 10 µM, first compound 0.0316 µM
[12] = second compound 10 µM, first compound 0.1 µM
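Note: spheroids exposed to compounds for 7 days.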
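Throughout, for viability, T/C: 100% = DMSO vehicle-treated spheroids.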

Compound: CC1COCCN1c1cc(C2(S(C)(=N)=O)CC2)nc(-c2ccnc3[nH]ccc23)n1 (centres undefined) + Cc1cccc(N(C)C(=O)C2C(O)CCN2c2nc(C)cc(C(F)(F)F)c2C#N)c1
- IC50 (second compound 0.0316 µM): 377 nM
- IC50 (second compound 0.1 µM): 407 nM
- IC50 (second compound 0.316 µM): 567 nM
- IC50 (second compound 1 µM): 337 nM
- IC50 (second compound 3.16 µM): 394 nM
- IC50 (second compound 10 µM): 454 nM
- viability, T/C [1]: 114%
- viability, T/C [2]: 82.1%
- viability, T/C (second compound 0.0316 µM, first compound 0.316 µM): 62%
- viability, T/C (second compound 0.0316 µM, first compound 1 µM): 20.7%
- viability, T/C (second compound 0.0316 µM, first compound 3.16 µM): 9.12%
- viability, T/C (second compound 0.0316 µM, first compound 10 µM): 5.39%
- viability, T/C [3]: 80.6%
- viability, T/C [4]: 91.1%
- viability, T/C (second compound 0.1 µM, first compound 0.316 µM): 53.5%
- viability, T/C (second compound 0.1 µM, first compound 1 µM): 24.7%
- viability, T/C (second compound 0.1 µM, first compound 3.16 µM): 7.03%
- viability, T/C (second compound 0.1 µM, first compound 10 µM): 4.47%
- viability, T/C [5]: 121%
- viability, T/C [6]: 102%
- viability, T/C (second compound 0.316 µM, first compound 0.316 µM): 75.9%
- viability, T/C (second compound 0.316 µM, first compound 1 µM): 25.7%
- viability, T/C (second compound 0.316 µM, first compound 3.16 µM): 9.72%
- viability, T/C (second compound 0.316 µM, first compound 10 µM): 5.65%
- viability, T/C [7]: 104%
- viability, T/C [8]: 118%
- viability, T/C (second compound 1 µM, first compound 0.316 µM): 52%
- viability, T/C (second compound 1 µM, first compound 1 µM): 30.7%
- viability, T/C (second compound 1 µM, first compound 3.16 µM): 7.73%
- viability, T/C (second compound 1 µM, first compound 10 µM): 5.65%
- viability, T/C [9]: 105%
- viability, T/C [10]: 86.3%
- viability, T/C (second compound 3.16 µM, first compound 0.316 µM): 54.6%
- viability, T/C (second compound 3.16 µM, first compound 1 µM): 28.7%
- viability, T/C (second compound 3.16 µM, first compound 3.16 µM): 7.73%
- viability, T/C (second compound 3.16 µM, first compound 10 µM): 4.73%
- viability, T/C [11]: 75.6%
- viability, T/C [12]: 92.2%
- viability, T/C (second compound 10 µM, first compound 0.316 µM): 56.6%
- viability, T/C (second compound 10 µM, first compound 1 µM): 27.7%
- viability, T/C (second compound 10 µM, first compound 3.16 µM): 8.08%
- viability, T/C (second compound 10 µM, first compound 10 µM): 5.23%

Compound: Cn1ncnc1[C@H]1c2n[nH]c(=O)c3cc(F)cc(c23)N[C@@H]1c1ccc(F)cc1 + Cc1cccc(N(C)C(=O)C2C(O)CCN2c2nc(C)cc(C(F)(F)F)c2C#N)c1
- IC50 (second compound 0.0316 µM): 10.2 nM
- IC50 (second compound 0.1 µM): 17.9 nM
- IC50 (second compound 0.316 µM): 14.2 nM
- IC50 (second compound 1 µM): 6.63 nM
- IC50 (second compound 3.16 µM): 12 nM
- IC50 (second compound 10 µM): 6.59 nM
- viability, T/C (second compound 0.0316 µM, first compound 0.000316 µM): 79.7%
- viability, T/C (second compound 0.0316 µM, first compound 0.001 µM): 88.5%
- viability, T/C (second compound 0.0316 µM, first compound 0.00316 µM): 79%
- viability, T/C (second compound 0.0316 µM, first compound 0.01 µM): 48.3%
- viability, T/C [1]: 39.4%
- viability, T/C [2]: 25.8%
- viability, T/C (second compound 0.1 µM, first compound 0.000316 µM): 103%
- viability, T/C (second compound 0.1 µM, first compound 0.001 µM): 93.2%
- viability, T/C (second compound 0.1 µM, first compound 0.00316 µM): 58.9%
- viability, T/C (second compound 0.1 µM, first compound 0.01 µM): 69%
- viability, T/C [3]: 39.2%
- viability, T/C [4]: 30%
- viability, T/C (second compound 0.316 µM, first compound 0.000316 µM): 65.8%
- viability, T/C (second compound 0.316 µM, first compound 0.001 µM): 82.8%
- viability, T/C (second compound 0.316 µM, first compound 0.00316 µM): 85.4%
- viability, T/C (second compound 0.316 µM, first compound 0.01 µM): 57.6%
- viability, T/C [5]: 36.8%
- viability, T/C [6]: 28.6%
- viability, T/C (second compound 1 µM, first compound 0.000316 µM): 89.3%
- viability, T/C (second compound 1 µM, first compound 0.001 µM): 97.8%
- viability, T/C (second compound 1 µM, first compound 0.00316 µM): 68.8%
- viability, T/C (second compound 1 µM, first compound 0.01 µM): 42.5%
- viability, T/C [7]: 46.1%
- viability, T/C [8]: 29.5%
- viability, T/C (second compound 3.16 µM, first compound 0.000316 µM): 99.1%
- viability, T/C (second compound 3.16 µM, first compound 0.001 µM): 80%
- viability, T/C (second compound 3.16 µM, first compound 0.00316 µM): 72.4%
- viability, T/C (second compound 3.16 µM, first compound 0.01 µM): 47.4%
- viability, T/C [9]: 41.3%
- viability, T/C [10]: 28.4%
- viability, T/C (second compound 10 µM, first compound 0.000316 µM): 64.5%
- viability, T/C (second compound 10 µM, first compound 0.001 µM): 86%
- viability, T/C (second compound 10 µM, first compound 0.00316 µM): 54.8%
- viability, T/C (second compound 10 µM, first compound 0.01 µM): 47.1%
- viability, T/C [11]: 30.4%
- viability, T/C [12]: 29.7%
